Like-named read-outs stand apart in the source and are kept apart here.
Tests used:
[1] = test system: S. aureus GC 1131; test: MIC, broth microdilution; conditions: Staphylococcus aureus
[2] = test system: E. faecalis GC 2242; test: MIC, broth microdilution; conditions: Enterococcus faecalis
[3] = test system: E. coli GC 2231; test: MIC, broth microdilution; conditions: Escherichia coli
[4] = test system: S. aureus GC 6467; test: MIC, broth microdilution; conditions: Staphylococcus aureus
[5] = test system: E. coli GC 2272; test: MIC, broth microdilution; conditions: Escherichia coli
[6] = test system: Staph. aureus Smith; test: In vivo activity (oral, iv; ED50) against Staph. aureus Smith in mice
Protocol: Representative examples of compounds of Formula I were tested for the oral efficacy using S. aureus Smith in mice.

[7] = test system: E. coli GC 2203; test: MIC, broth microdilution; conditions: Escherichia coli
[8] = test system: S. aureus GC 2216; test: MIC, broth microdilution; conditions: Staphylococcus aureus
[9] = test system: E. coli GC 4560; test: MIC, broth microdilution; conditions: Escherichia coli
[10] = test system: S. epidermidis GC 4935; test: MIC, broth microdilution; conditions: Staphylococcus epidermidis
[11] = test system: S. pneumoniae* GC 4465; test: MIC, broth microdilution; conditions: Streptococcus pneumoniae
[12] = test system: P. aeruginosa GC 2214; test: MIC, broth microdilution; conditions: Pseudomonas aeruginosa
[13] = test system: E. coli GC 2232; test: MIC, broth microdilution; conditions: Escherichia coli
[14] = test system: S. aureus GC 4536; test: MIC, broth microdilution; conditions: Staphylococcus aureus
[15] = test system: E. coli GC 6465; test: MIC, broth microdilution; conditions: Escherichia coli
[16] = test system: E. faecalis GC 2267; test: MIC, broth microdilution; conditions: Enterococcus faecalis
[17] = test system: E. coli GC 4559; test: MIC, broth microdilution; conditions: Escherichia coli
[18] = test system: S. pneumoniae+ GC 4465; test: MIC, broth microdilution; conditions: Streptococcus pneumoniae
[19] = test system: E. coli GC 2234; test: MIC, broth microdilution; conditions: Escherichia coli
[20] = test system: S. aureus GC 6466; test: MIC, broth microdilution; conditions: Staphylococcus aureus
[21] = read-out: MINIMAL INHIBITORY CONCENTRATION MIC, pre-incubated in Mouse Serum
[22] = read-out: MINIMAL INHIBITORY CONCENTRATION MIC, pre-incubated in Water

CCCCN(CC(=O)Nc1cc(N(C)C)c2c(c1O)C(=O)C1=C(O)[C@]3(O)C(=O)C(C(N)=O)=C(O)[C@@H](N(C)C)[C@@H]3C[C@@H]1C2)C(=O)OCOC(=O)c1cc(C)cc(C)c1 [Example 22, ({[(2-{[(5aR,6aS,7S,10aS)-9-(aminocarbonyl)-4,7-bis(dimethylamino)-1,8,10a,11-tetrahydroxy-10,12-dioxo-5,5a,6,6a,7,10,10a,12-octahydrotetracen-2-yl]amino}-2-oxoethyl)(butyl)amino]carbonyl}oxy)methyl 3,5-dimethylbenzoate]
0.43 mg/kg: ED50 ([6]; iv, read-out: ED50 Staph Smith SIV)
> 64 µg/mL: MIC ([3]; GC2231, read-out: MINIMAL INHIBITORY CONCENTRATION MIC, pre-incubated in Water) | MIC ([4]; GC6467, read-out: MINIMAL INHIBITORY CONCENTRATION MIC, pre-incubated in Water) | MIC ([5]; GC2272, read-out: MINIMAL INHIBITORY CONCENTRATION MIC, pre-incubated in Water) | MIC ([7]; GC2203, read-out: MINIMAL INHIBITORY CONCENTRATION MIC, pre-incubated in Water) | MIC ([9]; GC4560, read-out: MINIMAL INHIBITORY CONCENTRATION MIC, pre-incubated in Water) | MIC ([12]; GC2214, read-out: MINIMAL INHIBITORY CONCENTRATION MIC, pre-incubated in Mouse Serum) | MIC ([12]; GC2214, read-out: MINIMAL INHIBITORY CONCENTRATION MIC, pre-incubated in Water) | MIC ([13]; GC2232, read-out: MINIMAL INHIBITORY CONCENTRATION MIC, pre-incubated in Water) | MIC ([15]; GC6465, read-out: MINIMAL INHIBITORY CONCENTRATION MIC, pre-incubated in Water) | MIC ([17]; GC4559, read-out: MINIMAL INHIBITORY CONCENTRATION MIC, pre-incubated in Water) | MIC ([19]; GC2234, read-out: MINIMAL INHIBITORY CONCENTRATION MIC, pre-incubated in Water)
8 µg/mL: MIC ([15]; GC6465, read-out: MINIMAL INHIBITORY CONCENTRATION MIC, pre-incubated in Mouse Serum)
64 µg/mL: MIC ([16]; GC2267, read-out: MINIMAL INHIBITORY CONCENTRATION MIC, pre-incubated in Water)
2 µg/mL: MIC ([2]; GC2242, read-out: MINIMAL INHIBITORY CONCENTRATION MIC, pre-incubated in Mouse Serum) | MIC ([3]; GC2231, read-out: MINIMAL INHIBITORY CONCENTRATION MIC, pre-incubated in Mouse Serum) | MIC ([10]; GC4935, read-out: MINIMAL INHIBITORY CONCENTRATION MIC, pre-incubated in Mouse Serum) | MIC ([13]; GC2232, read-out: MINIMAL INHIBITORY CONCENTRATION MIC, pre-incubated in Mouse Serum) | MIC ([14]; GC4536, read-out: MINIMAL INHIBITORY CONCENTRATION MIC, pre-incubated in Water) | MIC ([17]; GC4559, read-out: MINIMAL INHIBITORY CONCENTRATION MIC, pre-incubated in Mouse Serum) | MIC ([20]; GC6466, read-out: MINIMAL INHIBITORY CONCENTRATION MIC, pre-incubated in Water)
4 µg/mL: MIC ([1]; GC1131, read-out: MINIMAL INHIBITORY CONCENTRATION MIC, pre-incubated in Water) | MIC ([4]; GC6467, read-out: MINIMAL INHIBITORY CONCENTRATION MIC, pre-incubated in Mouse Serum) | MIC ([8]; GC2216, read-out: MINIMAL INHIBITORY CONCENTRATION MIC, pre-incubated in Water) | MIC ([16]; GC2267, read-out: MINIMAL INHIBITORY CONCENTRATION MIC, pre-incubated in Mouse Serum) | MIC [18, 21]
0.5 µg/mL: MIC ([9]; GC4560, read-out: MINIMAL INHIBITORY CONCENTRATION MIC, pre-incubated in Mouse Serum) | MIC [11, 21] | MIC ([20]; GC6466, read-out: MINIMAL INHIBITORY CONCENTRATION MIC, pre-incubated in Mouse Serum)
1 µg/mL: MIC ([1]; GC1131, read-out: MINIMAL INHIBITORY CONCENTRATION MIC, pre-incubated in Mouse Serum) | MIC ([5]; GC2272, read-out: MINIMAL INHIBITORY CONCENTRATION MIC, pre-incubated in Mouse Serum) | MIC ([7]; GC2203, read-out: MINIMAL INHIBITORY CONCENTRATION MIC, pre-incubated in Mouse Serum) | MIC ([8]; GC2216, read-out: MINIMAL INHIBITORY CONCENTRATION MIC, pre-incubated in Mouse Serum) | MIC [11, 22] | MIC ([14]; GC4536, read-out: MINIMAL INHIBITORY CONCENTRATION MIC, pre-incubated in Mouse Serum) | MIC ([19]; GC2234, read-out: MINIMAL INHIBITORY CONCENTRATION MIC, pre-incubated in Mouse Serum)
16 µg/mL: MIC ([10]; GC4935, read-out: MINIMAL INHIBITORY CONCENTRATION MIC, pre-incubated in Water) | MIC [18, 22]
32 µg/mL: MIC ([2]; GC2242, read-out: MINIMAL INHIBITORY CONCENTRATION MIC, pre-incubated in Water)
18.8 mg/kg: ED50 ([6]; Staphylococcus aureus, in Mus musculus, po, read-out: ED50 Staph Smith SOD)

Source: patent US20070049564A1 (Wyeth, priority 2005, published 2007)
